In paper PMC8294059, “Identification and Immune Assessment of T Cell Epitopes in Five Plasmodium falciparum Blood Stage Antigens to Facilitate Vaccine Candidate Selection and Optimization” (Frontiers in Immunology, 2021):
Where a SMILES comes first, the peptide text is derived from it.

These molecules were tested against HLA-A*0201 (Homo sapiens, UniProt P04439, D140Y/D185E/D98H/E176V/E277Q/G131W/G231S/I119V/I121R/I166T/I218V/L300P/L318F/N151K/N90K/P208A/P217A/Q86G/Q94H/R138H/R169H/T345S) (assay: In vitro class I HLA binding assay (fluorescence polarization competition)). Conditions: allele A*0201; fluorescence polarization competition.
Procedure, shortened: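 Cell-free competition assay: HLA heat-treated 53°C for 15 min to strip endogenous peptides, then mixed with fluorescent high-affinity control peptide and test peptides for 72 h to equilibrium. Displacement read by fluorescence polarization as percent inhibition; IC50 derived from a concentration range.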
For KRASHTTPV [AMA1_607], the “IC50 (nM), in vitro HLA binding affinity” value was “Non-binder”.

Same assay, conditions: allele A*0201; fluorescence polarization competition; read-out: IC50 (nM), in vitro HLA binding affinity
With `CC[C@H](C)[C@H](NC(=O)[C@H](Cc1c[nH]c2ccccc12)NC(=O)[C@H](CO)NC(=O)[C@H](CC(=O)O)NC(=O)[C@H](CCCCN)NC(=O)[C@@H](NC(=O)[C@@H](N)CCCCN)C(C)C)C(=O)N[C@H](C(=O)N[C@@H](CC(C)C)C(=O)O)[C@@H](C)O` [CYRPA_082] (H-KVKDSWITL-OH) the IC50 was 4010 nM.
With `CC[C@H](C)[C@H](NC(=O)[C@H](CS)NC(=O)[C@@H](NC(=O)CNC(=O)[C@H](CC(N)=O)NC(=O)[C@H](CCC(=O)O)NC(=O)[C@H](CC(C)C)NC(=O)[C@@H](NC(=O)[C@@H](N)Cc1ccccc1)C(C)C)C(C)C)C(=O)O` [RIPR_0745] (H-FVLENGVCI-OH) the IC50 was 4170 nM.

What follows are molecules tested against HLA-A*0301 (Homo sapiens, UniProt P04439) (assay: biochemical). Conditions: not given.
Assay type: binding
Description: (§1) A cell-free class I HLA binding assay that allows for in vitro quantification of peptide-HLA binding affinity in a competition format was used. In this assay, a fluorescently labeled, high binding, control peptide is loaded onto 384-well ½-area plates along with unlabeled experimental peptides. To remove endogenous peptides and render the HLA A and B molecules receptive to binding, HLA is heated at 53°C for 15 minutes and immediately added to the assay. The mixture is then allowed to stand for three days. Once the mixture has reached steady equilibrium (at 72 hours), displacement of the high binding control peptide is measured through fluorescence polarization. Binding of experimental peptides is expressed as the percent inhibition of the labeled control peptide (experimental fluorescence / control fluorescence, multiplied by 100). The percent inhibition values for each experimental peptide (across a range of molar concentrations) are used to calculate the concentration which inhibits 50% of the labeled control peptide’s specific binding. This value is referred to as the peptide’s IC50.
In the case of `CC[C@H](C)[C@H](NC(=O)[C@@H](N)Cc1ccccc1)C(=O)N[C@@H](CO)C(=O)N[C@@H](CC(=O)O)C(=O)N[C@@H](CC(=O)O)C(=O)N[C@@H](CCCCN)C(=O)N[C@@H](CC(=O)O)C(=O)N[C@@H](CO)C(=O)N[C@@H](CC(C)C)C(=O)N[C@@H](CCCCN)C(=O)O` [AMA1_480K] (H-FISDDKDSLK-OH), the IC50 is reported as 697000 nM.

Same assay, conditions: allele A*0301; cell-free competition, fluorescence polarization at 72 hours; Non-binder = no dose-dependent inhibition; read-out: IC50
`CC[C@H](C)[C@H](NC(=O)[C@H](Cc1ccccc1)NC(=O)[C@@H](NC(=O)[C@H](Cc1ccccc1)NC(=O)[C@@H](NC(=O)[C@@H](N)CCCCN)[C@@H](C)CC)[C@@H](C)O)C(=O)N[C@@H](CCC(=O)O)C(=O)N[C@@H](CC(N)=O)C(=O)N[C@@H](CCCCN)C(=O)O` [EBA175_0058] (H-KIFTFIENK-OH) was tested, and the IC50 was 467 nM.
`CC[C@H](C)[C@H](N)C(=O)N[C@@H](CC(C)C)C(=O)N[C@@H](CC(N)=O)C(=O)N[C@@H](CC(N)=O)C(=O)N[C@@H](CO)C(=O)N[C@@H](CCCCN)C(=O)N[C@@H](Cc1ccccc1)C(=O)N[C@@H](CC(N)=O)C(=O)N[C@@H](CCCCN)C(=O)O` [EBA175_0069] (H-ILNNSKFNK-OH) showed an IC50 of 420 nM.
`CC[C@H](C)[C@H](NC(=O)[C@H](Cc1c[nH]c2ccccc12)NC(=O)[C@H](CCC(=O)O)NC(=O)[C@H](CCCCN)NC(=O)[C@H](Cc1ccc(O)cc1)NC(=O)[C@H](CO)NC(=O)[C@@H](N)CC(N)=O)C(=O)N[C@@H](CO)C(=O)N[C@@H](CCCCN)C(=O)N[C@@H](CCCCN)C(=O)O` [EBA175_0667] (H-NSYKEWISKK-OH) showed an IC50 of 7370 nM.
Work on `CC[C@H](C)[C@H](NC(=O)[C@H](CC(=O)O)NC(=O)[C@@H](NC(=O)[C@H](Cc1c[nH]cn1)NC(=O)[C@H](CO)NC(=O)[C@H](CC(C)C)NC(=O)[C@@H](N)CCCNC(=N)N)[C@@H](C)O)C(=O)N[C@@H](Cc1c[nH]cn1)C(=O)N[C@@H](CCCCN)C(=O)O` [EBA175_1214] (H-RLSHTDIHK-OH) yielded an IC50 of 1740 nM.

Same assay, conditions: allele A*0301; fluorescence polarization competition; read-out: IC50 (nM), in vitro HLA binding affinity
`CC(C)C[C@H](NC(=O)[C@H](Cc1ccc(O)cc1)NC(=O)[C@H](CCC(N)=O)NC(=O)[C@H](CC(N)=O)NC(=O)CNC(=O)[C@@H](NC(=O)[C@H](C)NC(=O)[C@@H](NC(=O)[C@@H]1CCCN1)C(C)C)[C@@H](C)O)C(=O)N[C@@H](CCCCN)C(=O)O` [AMA1_168] (H-PVATGNQYLK-OH) showed an IC50 of 328000 nM.
For `CC(C)C[C@H](NC(=O)[C@H](Cc1ccccc1)NC(=O)[C@H](C)NC(=O)[C@@H](N)CO)C(=O)N1CCC[C@H]1C(=O)N[C@H](C(=O)NCC(=O)N[C@@H](C)C(=O)N[C@@H](Cc1ccccc1)C(=O)N[C@@H](CCCCN)C(=O)O)[C@@H](C)O` [AMA1_377] (H-SAFLPTGAFK-OH), the IC50 was 345 nM.
For `CC[C@H](C)[C@H](NC(=O)[C@@H](N)Cc1c[nH]cn1)C(=O)N[C@@H](Cc1ccc(O)cc1)C(=O)N[C@H](C(=O)N[C@@H](CCC(N)=O)C(=O)N[C@@H](CCCCN)C(=O)N[C@@H](CCCCN)C(=O)N[C@H](C(=O)N[C@@H](CCCCN)C(=O)O)C(C)C)C(C)C` [CYRPA_076] (H-HIYVQKKVK-OH), the IC50 was 897 nM.
In the case of `CC(C)C[C@H](NC(=O)[C@@H]1CCCN1C(=O)[C@H](CC(C)C)NC(=O)[C@H](CO)NC(=O)[C@@H](NC(=O)[C@H](Cc1ccc(O)cc1)NC(=O)[C@H](CO)NC(=O)[C@H](CO)NC(=O)[C@@H](N)CC(C)C)C(C)C)C(=O)N[C@@H](CCCCN)C(=O)O` [CYRPA_161] (H-LSSYVSLPLK-OH), the IC50 is reported as 654 nM.
`CC[C@H](C)[C@H](NC(=O)[C@@H](N)CC(C)C)C(=O)N[C@@H](CS)C(=O)NCC(=O)N[C@H](C(=O)N[C@@H](CO)C(=O)N1CCC[C@H]1C(=O)N[C@@H](Cc1ccc(O)cc1)C(=O)N[C@@H](CCCCN)C(=O)O)C(C)C` [CYRPA_178] (H-LICGVSPYK-OH) gave an IC50 of 419 nM.
In the case of `CC[C@H](C)[C@H](NC(=O)[C@H](CO)NC(=O)[C@H](CC(N)=O)NC(=O)[C@H](Cc1ccc(O)cc1)NC(=O)[C@H](CO)NC(=O)[C@H](CC(C)C)NC(=O)[C@@H](N)Cc1c[nH]cn1)C(=O)N[C@@H](Cc1ccc(O)cc1)C(=O)N[C@@H](Cc1c[nH]cn1)C(=O)N[C@@H](CCCCN)C(=O)O` [RH5_187] (H-HLSYNSIYHK-OH), the IC50 is reported as 44200 nM.
With `CC[C@H](C)[C@H](NC(=O)[C@H](CO)NC(=O)[C@H](CC(N)=O)NC(=O)[C@H](Cc1ccc(O)cc1)NC(=O)[C@H](CO)NC(=O)[C@@H](N)CC(C)C)C(=O)N[C@@H](Cc1ccc(O)cc1)C(=O)N[C@@H](Cc1c[nH]cn1)C(=O)N[C@@H](CCCCN)C(=O)O` [RH5_188] (H-LSYNSIYHK-OH) the IC50 was 3070 nM.
Molecule `CC[C@H](C)[C@H](NC(=O)[C@H](CC(=O)O)NC(=O)[C@H](CC(N)=O)NC(=O)[C@H](CS)NC(=O)[C@H](CCCCN)NC(=O)[C@H](CO)NC(=O)[C@H](CCCCN)NC(=O)[C@@H](NC(=O)[C@@H](N)CCCCN)C(C)C)C(=O)N[C@@H](CCCCN)C(=O)O` [RH5_219] (H-KVKSKCNDIK-OH) has an IC50 of 39300 nM.
`CC(C)C[C@H](NC(=O)[C@H](CC(N)=O)NC(=O)[C@@H](NC(=O)[C@H](CC(C)C)NC(=O)[C@H](CC(C)C)NC(=O)[C@@H](N)CC(C)C)[C@@H](C)O)C(=O)N[C@@H](CC(N)=O)C(=O)N[C@@H](CCCCN)C(=O)N[C@@H](CCCCN)C(=O)O` [RH5_392] (H-LLLTNLNKK-OH) gave an IC50 of 14100 nM.
In the case of `CC[C@H](C)[C@H](NC(=O)[C@H](Cc1ccc(O)cc1)NC(=O)[C@@H](NC(=O)[C@H](Cc1ccc(O)cc1)NC(=O)[C@H](CO)NC(=O)CN)[C@@H](C)CC)C(=O)N[C@@H](CC(=O)O)C(=O)N[C@H](C(=O)N[C@H](C(=O)N[C@@H](CCCCN)C(=O)O)[C@@H](C)CC)[C@@H](C)O` [RH5_402] (H-GSYIYIDTIK-OH), the IC50 is reported as 70800 nM.
Molecule `CC[C@H](C)[C@H](NC(=O)[C@H](CCCCN)NC(=O)[C@@H](NC(=O)[C@@H](N)Cc1c[nH]cn1)[C@@H](C)O)C(=O)N[C@H](C(=O)N[C@@H](CC(N)=O)C(=O)N[C@@H](CC(=O)O)C(=O)N[C@@H](CCCCN)C(=O)N[C@H](C(=O)N[C@@H](CCCCN)C(=O)O)[C@@H](C)O)[C@@H](C)CC` [RH5_427] (H-HTKIINDKTK-OH) has an IC50 of 73000 nM.
Work on `CC[C@H](C)[C@H](NC(=O)[C@H](CC(N)=O)NC(=O)[C@H](CC(C)C)NC(=O)[C@@H](N)CCCCN)C(=O)N[C@@H](Cc1c[nH]c2ccccc12)C(=O)N[C@@H](CCCNC(=N)N)C(=O)N[C@H](C(=O)N[C@@H](Cc1ccccc1)C(=O)N[C@@H](CCC(N)=O)C(=O)N[C@@H](CCCCN)C(=O)O)[C@@H](C)O` [RH5_443] (H-KLNIWRTFQK-OH) yielded an IC50 of 2500 nM.
`CC(C)C[C@H](NC(=O)[C@H](CC(C)C)NC(=O)[C@H](CCC(=O)O)NC(=O)[C@H](CC(=O)O)NC(=O)[C@H](CCCCN)NC(=O)[C@H](CCC(N)=O)NC(=O)[C@H](Cc1ccccc1)NC(=O)[C@@H](NC(=O)[C@@H](N)CCCNC(=N)N)[C@@H](C)O)C(=O)N[C@@H](CCCCN)C(=O)O` [RH5_448] (H-RTFQKDELLK-OH) gave an IC50 of 24200 nM.
`C[C@H](N)C(=O)N[C@H](C(=O)N[C@@H](CS)C(=O)N[C@@H](CCCCN)C(=O)N[C@@H](Cc1ccc(O)cc1)C(=O)NCC(=O)N[C@@H](Cc1ccccc1)C(=O)N[C@@H](CC(N)=O)C(=O)N[C@@H](CCCCN)C(=O)O)[C@@H](C)O` [RIPR_0266] (H-ATCKYGFNK-OH) was tested, and the IC50 was 4750 nM.
`CC(C)C[C@H](NC(=O)[C@H](CO)NC(=O)[C@H](CCC(=O)O)NC(=O)[C@@H](NC(=O)[C@@H](NC(=O)[C@H](Cc1ccc(O)cc1)NC(=O)[C@H](CCCCN)NC(=O)[C@H](CC(C)C)NC(=O)[C@@H](N)CCCCN)C(C)C)[C@@H](C)O)C(=O)N[C@@H](CCCCN)C(=O)O` [RIPR_0425] (H-KLKYVTESLK-OH) gave an IC50 of 3340 nM.

The molecules below were run against HLA-B*0702 (Homo sapiens, UniProt P01889) (assay: In vitro class I HLA binding assay (fluorescence polarization competition)). Conditions: allele B*0702; fluorescence polarization competition.
Description: as §1, with “Once the mixture has reached steady equilibrium (at 72 hours), displacement of the high binding control peptide is measured through fluorescence polarization.” left out
In the case of KRASHTTPV [AMA1_607], the “IC50 (nM), in vitro HLA binding affinity” value is reported as “Non-binder”.

Same assay, conditions: allele B*0702; fluorescence polarization competition; read-out: IC50 (nM), in vitro HLA binding affinity
Molecule `CC[C@H](C)[C@H](NC(=O)[C@H](Cc1c[nH]c2ccccc12)NC(=O)[C@H](CO)NC(=O)[C@H](CC(=O)O)NC(=O)[C@H](CCCCN)NC(=O)[C@@H](NC(=O)[C@@H](N)CCCCN)C(C)C)C(=O)N[C@H](C(=O)N[C@@H](CC(C)C)C(=O)O)[C@@H](C)O` [CYRPA_082] (H-KVKDSWITL-OH) has an IC50 of 458 nM.
Molecule `CC[C@H](C)[C@H](NC(=O)[C@H](CS)NC(=O)[C@@H](NC(=O)CNC(=O)[C@H](CC(N)=O)NC(=O)[C@H](CCC(=O)O)NC(=O)[C@H](CC(C)C)NC(=O)[C@@H](NC(=O)[C@@H](N)Cc1ccccc1)C(C)C)C(C)C)C(=O)O` [RIPR_0745] (H-FVLENGVCI-OH) has an IC50 of 284000 nM.
